Data from the Kinase Knowledgebase extract (Sharma et al. 2016).

Each compound was assayed against PIK3CA (human) (UniProt P42336) (assay: Assessment of PIK3CA Kinase Activity).
Sequence of PIK3CA (human) (P42336 whole entry, looked up): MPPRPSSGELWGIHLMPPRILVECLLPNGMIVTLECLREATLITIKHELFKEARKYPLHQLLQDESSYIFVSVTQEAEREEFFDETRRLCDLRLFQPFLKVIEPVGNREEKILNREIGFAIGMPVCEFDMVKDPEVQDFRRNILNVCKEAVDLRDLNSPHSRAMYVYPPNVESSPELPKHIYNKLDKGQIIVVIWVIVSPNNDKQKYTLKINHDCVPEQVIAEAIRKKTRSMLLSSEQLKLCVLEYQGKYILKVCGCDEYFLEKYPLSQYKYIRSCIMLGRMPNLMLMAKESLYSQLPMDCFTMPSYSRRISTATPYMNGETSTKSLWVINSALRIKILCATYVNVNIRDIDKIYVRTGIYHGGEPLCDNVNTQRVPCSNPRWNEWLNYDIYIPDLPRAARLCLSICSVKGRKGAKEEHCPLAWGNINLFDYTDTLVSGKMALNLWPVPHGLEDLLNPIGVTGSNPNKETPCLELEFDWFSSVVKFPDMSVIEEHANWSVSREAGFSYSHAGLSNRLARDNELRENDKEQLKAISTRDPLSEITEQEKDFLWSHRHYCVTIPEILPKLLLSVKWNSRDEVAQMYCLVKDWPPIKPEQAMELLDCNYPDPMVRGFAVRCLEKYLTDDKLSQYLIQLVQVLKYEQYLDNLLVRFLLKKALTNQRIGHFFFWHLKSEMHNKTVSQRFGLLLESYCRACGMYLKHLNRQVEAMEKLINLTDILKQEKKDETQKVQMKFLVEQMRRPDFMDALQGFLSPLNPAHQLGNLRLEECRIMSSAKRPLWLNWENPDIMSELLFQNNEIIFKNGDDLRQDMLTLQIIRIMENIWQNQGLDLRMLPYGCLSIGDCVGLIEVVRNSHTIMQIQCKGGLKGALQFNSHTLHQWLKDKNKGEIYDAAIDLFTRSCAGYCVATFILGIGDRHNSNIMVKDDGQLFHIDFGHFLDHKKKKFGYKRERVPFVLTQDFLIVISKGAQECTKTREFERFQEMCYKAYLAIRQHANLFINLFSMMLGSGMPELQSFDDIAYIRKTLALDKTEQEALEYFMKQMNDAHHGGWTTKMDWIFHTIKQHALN

IC50 [nM]	Structure (SMILES)
< 1000	CS(=O)(=O)N1CCN(c2ccc3c(n2)-c2sc(-c4ncnn4-c4ccc(F)cc4F)cc2CCO3)CC1
< 1000	COCC(O)Cn1cc(-c2ccc3c(c2)OCCc2sc(-c4nc(C)nn4C(C)C)nc2-3)cn1 (configuration not stated)
< 1000	CC(C)n1ncnc1-c1nc2c(s1)CCOc1cc(-c3ccc(=O)[nH]c3)ccc1-2
< 1000	COc1ccccc1-c1ccc2c(c1)-c1nc(-c3ncnn3C(C)C)sc1CCO2
< 1000	CC(C)(O)Cn1cc(-c2ccc3c(c2)OCCc2sc(C(=O)N(CCO)C4CCOCC4)nc2-3)cn1
< 1000	CC(C)(O)Cn1cc(-c2ccc3c(c2)OCCc2sc(-c4nccn4C4COC4)nc2-3)cn1
< 1000	O=C(c1nc2c(s1)CCOc1cc(-c3cn[nH]c3)ccc1-2)N1CCC[C@@H](CO)C1
< 1000	CC1(C)C(=O)N(CCN)C(=O)N1c1nc2c(s1)CCOc1ccccc1-2
< 1000	CC(C)(O)Cn1cc(-c2ccc3c(c2)OCCc2sc(N4C(=O)NC(=O)C4(C)C)nc2-3)cn1
< 1000	N#C[C@@H]1CCCN1C(=O)c1nc2c(s1)CCOc1cc(-c3cn[nH]c3)ccc1-2
< 1000	CNc1ccc(-c2ccc3c(c2)-c2nc(C(=O)N(CCO)C(C)C)sc2CCO3)cn1
< 1000	CC(C)N(CCO)C(=O)c1nc2c(s1)CCOc1cc(-c3cnc(N4CCN(C)CC4)nc3)ccc1-2
< 1000	C[C@@H]1CN(C2CCN(C(=O)c3nc4c(s3)CCOc3cc(-c5cn[nH]c5)ccc3-4)CC2)C[C@@H](C)O1
< 1000	CC(C)n1nc(N)nc1-c1nc2c(s1)CCOc1cc(C3CN(CCS(C)(=O)=O)C3)ccc1-2
< 1000	OCCn1cc(-c2ccc3c(c2)OCCc2sc(-c4ncnn4Cc4ccncc4)nc2-3)cn1
< 1000	Cc1cnc(F)c(-c2ccc3c(c2)-c2nc(-c4ncnn4C(C)C)sc2CCO3)c1
< 1000	Fc1ccc(-n2ncnc2-c2cc3c(s2)-c2nc(-c4ccc(N5CCCCC5)nc4)ccc2OCC3)c(F)c1
< 1000	NC(=O)c1cnc2c(c1)OCCc1cc(-c3ccc[nH]c3=O)sc1-2
< 1000	C[C@@H]1CN(c2ccc3c(n2)-c2sc(-c4ncnn4-c4ccc(F)cc4F)cc2CCO3)C[C@H](C)N1C(=O)C(F)(F)F
< 1000	CS(=O)(=O)N1CCN(C(=O)c2nc3c(s2)CCOc2cc(-c4cn[nH]c4)ccc2-3)CC1
< 1000	CC(C)n1ncnc1-c1nc2c(s1)CCOc1cc(CN3CCC[C@H]3C(N)=O)ccc1-2
< 1000	O=C(c1nc2c(s1)CCOc1cc(-c3cn[nH]c3)ccc1-2)N1CCNCC1
< 1000	CC(=O)N(C)[C@@H]1CCN(C(=O)c2nc3c(s2)CCOc2cc(-c4cn[nH]c4)ccc2-3)C1

IC50 [nM]	Structure (SMILES)
< 1000	Cc1ncccc1-c1ccc2c(c1)-c1nc(-c3ncnn3C(C)C)sc1CCO2
< 1000	CC(C)n1ncnc1-c1nc2c(s1)CCOc1ccc(-c3cnn(S(=O)(=O)c4ccccc4)c3)cc1-2
< 1000	CC(C)n1cnnc1-c1nc2c(s1)CCOc1cc(C(=O)Nc3ccon3)ccc1-2
< 1000	CC(C)n1ncnc1-c1nc2c(s1)CCOc1ccc(-c3ccc(F)nc3)cc1-2
< 1000	CC(C)n1ncnc1-c1nc2c(s1)CCOc1cc(-c3cc[nH]c(=O)c3)ccc1-2
< 1000	Cc1ccc(-c2ccc3c(c2)-c2nc(-c4ncnn4C(C)C)sc2CCO3)cn1
< 1000	COCCn1cccc(-c2ccc3c(c2)-c2nc(-c4ncnn4C(C)C)sc2CCO3)c1=O
< 1000	N#CC1CCN(C(=O)c2nc3c(s2)CCOc2cc(-c4cn[nH]c4)ccc2-3)CC1
< 1000	CC(C)N(CCO)C(=O)c1nc2c(s1)CCOc1cc(-c3cnn(CCN4CCOCC4)c3)ccc1-2
< 1000	CNC(=O)Cn1cccc(-c2ccc3c(c2)-c2nc(-c4ncnn4C(C)C)sc2CCO3)c1=O
< 1000	OCCn1cc(-c2ccc3c(c2)OCCc2sc(-c4ncnn4CCN4CCOCC4)nc2-3)cn1
< 1000	CC(CO)n1ncnc1-c1nc2c(s1)CCOc1cc(-c3cnn(CC(C)(C)O)c3)ccc1-2 (configuration not stated)
< 1000	Nc1ccc(-c2ccc3c(n2)-c2sc(-c4ncnn4-c4ccc(F)cc4F)cc2CCO3)cn1
< 1000	COC[C@@H]1CCCN(C(=O)c2nc3c(s2)CCOc2cc(-c4cn[nH]c4)ccc2-3)C1
< 1000	C[C@H](O)Cn1cc(-c2ccc3c(c2)OCCc2sc(-c4ncnn4CC(F)(F)F)nc2-3)cn1
< 1000	Cc1nc(-c2nc3c(s2)CCOc2cc(C4CN(CCS(C)(=O)=O)C4)ccc2-3)n(C(C)C)n1
< 1000	CN(C(=O)c1cc2c(s1)-c1ccc(C(=O)NCCS(C)(=O)=O)cc1OCC2)c1cc(C(=O)N2CC(O)C2)ccc1Cl
< 1000	CC(C)n1ncnc1-c1nc2c(s1)CCOc1ccc(-c3cccn(CC(=O)O)c3=O)cc1-2
< 1000	O=C(NCCO)c1ccc2c(c1)OCCc1sc(-c3ncnn3CC(F)(F)F)nc1-2
< 1000	CC(C)C(=O)N1CCN(C(=O)c2nc3c(s2)CCOc2cc(-c4cn[nH]c4)ccc2-3)CC1
< 1000	CN(C[C@H](O)c1ccccc1)C(=O)c1nc2c(s1)CCOc1cc(-c3cn[nH]c3)ccc1-2
< 1000	Cc1ncccc1-c1ccc2c(c1)-c1nc(C(=O)N(CCO)C(C)C)sc1CCO2
< 1000	O=C(c1nc2c(s1)CCOc1cc(-c3cn[nH]c3)ccc1-2)N1CCC1

IC50 [nM]	Structure (SMILES)
< 1000	O=C(c1nc2c(s1)CCOc1cc(-c3cn[nH]c3)ccc1-2)N1CC[C@@H](O)C1
< 1000	CN(C)CCCOc1ccc(-c2ccc3c(c2)OCCc2sc(-c4ncnn4CC(F)(F)F)nc2-3)cn1
< 1000	Fc1ccc(-n2ncnc2-c2cc3c(s2)-c2nc(N4CC5CC4CN5)ccc2OCC3)c(F)c1 (configuration not stated)
< 1000	CC(C)n1ncnc1-c1nc2c(s1)CCOc1cc(C3CN(CCS(=O)(=O)N(C)C)C3)ccc1-2
< 1000	CC(C)n1ncnc1-c1nc2c(s1)CCOc1ccc(-c3cccnc3)cc1-2
< 1000	CN1CCC(CNc2ccc3c(n2)-c2sc(-c4ncnn4-c4ccc(F)cc4F)cc2CCO3)CC1
< 1000	CN(CCO)c1ccc2c(n1)-c1sc(-c3ncnn3-c3ccc(F)cc3F)cc1CCO2
< 1000	O=C(c1nc2c(s1)CCOc1cc(-c3cn[nH]c3)ccc1-2)N1CCCN(c2ccccn2)CC1
< 1000	CC(C)(O)Cn1cc(-c2ccc3c(c2)OCCc2sc(-c4nccn4CC(F)(F)F)nc2-3)cn1
< 1000	Cc1nc(-c2nc3c(s2)CCOc2cc(-c4cnn(C5CN(CCO)C5)c4)ccc2-3)n(C(C)C)n1
< 1000	CC(C)n1ncnc1-c1nc2c(s1)CCOc1cc(C3CCN(CC(N)=O)CC3)ccc1-2
< 1000	CN(CCc1ccccn1)C(=O)c1nc2c(s1)CCOc1cc(-c3cn[nH]c3)ccc1-2
< 1000	COCCn1ccc(-c2ccc3c(c2)-c2nc(-c4ncnn4C(C)C)sc2CCO3)cc1=O
< 1000	CC(C)n1ncnc1-c1nc2c(s1)CCOc1ccc(C3CCN(CC(N)=O)CC3)cc1-2
< 1000	CC(C)n1ncnc1-c1nc2c(s1)CCOc1cc(C3CN(C(=O)[C@H](C)O)C3)ccc1-2
< 1000	CC(C)n1ncnc1-c1nc2c(s1)CCOc1cc(C3CCN(S(C)(=O)=O)C3)ccc1-2 (configuration not stated)
< 1000	O=C(O)Cn1cc(-c2ccc3c(c2)OCCc2sc(-c4ncnn4CC(F)(F)F)nc2-3)cn1
< 1000	CC(C)(C(=O)NCCO)n1cc(-c2ccc3c(c2)OCCc2sc(-c4ncnn4CC(F)(F)F)nc2-3)cn1
< 1000	COCCNc1ccc2c(n1)-c1sc(-c3ncnn3-c3ccc(F)cc3F)cc1CCO2
< 1000	CS(=O)(=O)c1cccc(-c2ccc3c(c2)OCCc2sc(-c4ncnn4CC(F)(F)F)nc2-3)c1
< 1000	CC(C)n1ncnc1-c1nc2c(s1)CCOc1cc(C3(O)CCNCC3)ccc1-2
< 1000	CC(C)n1ncnc1-c1nc2c(s1)CCOc1ccc(C3CN(CC(C)(C)O)C3)cc1-2
< 1000	CC(C)(O)Cn1cc(-c2ccc3c(c2)OCCc2sc(-c4ncnn4Cc4ccncc4)nc2-3)cn1

IC50 [nM]	Structure (SMILES)
< 1000	O=C(O)C1CCCN(C(=O)c2nc3c(s2)CCOc2cc(-c4cn[nH]c4)ccc2-3)C1 (configuration not stated)
< 1000	Cc1cc(-c2ccc3c(n2)-c2sc(-c4ncnn4-c4ccc(F)cc4F)cc2CCO3)cnc1N1CCOCC1
< 1000	FC(F)(F)Cn1ncnc1-c1nc2c(s1)CCOc1cc(-c3cnn(CCN4CCOCC4)c3)ccc1-2
< 1000	CNC(=O)c1ccc2c(c1)OCCc1cc(C(=O)N(C)c3cc(C(=O)N(C)CCO)ccc3Cl)sc1-2
< 1000	CC(C)n1nc(CO)nc1-c1nc2c(s1)CCOc1ccccc1-2
< 1000	Fc1ccc(-n2ncnc2-c2cc3c(s2)-c2nc(N4CCN(CC(F)(F)F)CC4)ccc2OCC3)c(F)c1
< 1000	C[C@@H]1CCCN1C(=O)c1nc2c(s1)CCOc1cc(-c3cn[nH]c3)ccc1-2
< 1000	CN(C(=O)c1nc2c(s1)CCOc1cc(-c3cn[nH]c3)ccc1-2)C1CCS(=O)(=O)C1 (configuration not stated)
< 1000	COCCNc1ccc(-c2ccc3c(n2)-c2sc(-c4ncnn4-c4ccc(F)cc4F)cc2CCO3)cn1
< 1000	Cc1c[nH]c(=O)c(-c2ccc3c(c2)-c2nc(-c4ncnn4C(C)C)sc2CCO3)c1
< 1000	CC1CCN(C(=O)c2nc3c(s2)CCOc2cc(-c4cn[nH]c4)ccc2-3)CC1
< 1000	Cc1nc(-c2nc3c(s2)CCOc2cc([C@@H]4CCCNC4)ccc2-3)n(C(C)C)n1
< 1000	FC(F)(F)Cn1ncnc1-c1nc2c(s1)CCOc1cc(-c3ccc(NCCN4CCOCC4)nc3)ccc1-2
< 1000	CC(C)Oc1ncccc1-c1ccc2c(c1)-c1nc(-c3ncnn3C(C)C)sc1CCO2
< 1000	COc1ccc(-c2ccc3c(n2)-c2sc(-c4ncnn4-c4ccc(F)cc4F)cc2CCO3)cn1
< 1000	CC(C)(O)Cn1cc(-c2ccc3c(c2)OCCc2sc(-c4ncnn4C4CCN(CCO)CC4)nc2-3)cn1
< 1000	CC(C)n1c(-c2nc3c(s2)CCOc2cc(-c4cnn(CC5(C)COC5)c4)ccc2-3)n[nH]c1=O
< 1000	OCCNc1ccc2c(n1)-c1sc(-c3ncnn3-c3ccc(F)cc3F)cc1CCO2
< 1000	CC(C)n1ccnc1-c1nc2c(s1)CCOc1cc(-c3cnn(CCO)c3)ccc1-2
< 1000	CC(C)n1ncnc1-c1nc2c(s1)CCOc1ccc(C3CCCC3)cc1-2
< 1000	Fc1ccc(-n2ncnc2-c2cc3c(s2)-c2nc(NCCN4CCOCC4)ccc2OCC3)c(F)c1
< 1000	NC(=O)Cn1cc(-c2ccc3c(c2)OCCc2sc(-c4ncnn4CC(F)(F)F)nc2-3)cn1
< 1000	CC(C)n1ncnc1-c1nc2c(s1)CCOc1ccc(C3CN(Cc4ccc(F)cc4F)C3)cc1-2
